Series [1] concerns TTR. The series can be described thus: TTR editing in primary cyno hepatocytes electroporated with Spy Cas9 protein and dgRNAs (Tables 10, 11). In kind it is cell-based, cynomolgus monkey. The conditions noted are these: Table 10; primary cyno hepatocytes electroporated with Spy Cas9 protein (RNP) and dgRNAs. The gist of the method:
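Editing efficiency is the fraction of NGS reads carrying insertions, deletions or substitutions at the TTR target, measured on MiSeq amplicons from DNA harvested 24, 48 or 72 h post-delivery. Cas9–dgRNA ribonucleoprotein was nucleofected (P3 buffer, EX-147) into primary human or cyno hepatocytes.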

The subject of series [2] is TTR. The series can be described thus: TTR editing in HUH7 cells transfected with Spy Cas9 mRNA and dgRNAs (Table 5). The format is cell-based, human. The conditions noted are these: HUH7 cells co-transfected with Spy Cas9 mRNA (SEQ ID NO:2) and dgRNAs. The gist of the method:
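Percent editing is the share of NGS reads at the TTR target carrying insertions, deletions or substitutions, from amplicon sequencing of genomic DNA harvested at 24, 48 or 72 h. HUH7 cells first received Cas9 mRNA (100 ng) by lipofection, then dual-guide RNA (crRNA and tracer, 25 nM each).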

For the sequence “AUUGGUGACGACAGCCGUGG (tested as dual guide RNA, chemistry not given here) [CR003389]”, in series [1], the “Avg % Deletion” value was determined as 0.78%, the “Avg % Edit” value amounted to 18.83% and the “Avg % Insert” value is 18.05%. Besides, in series [2], the “Avg % Deletion” value turned out to be 50.90%, the “Avg % Edit” value was found to be 62.32% and the “Avg % Insert” value is 13.19%.

Turning to “GUGAGUCUGGAGAGCUGCAU (tested as dual guide RNA, chemistry not given here) [CR003360]”, in series [1], the “Avg % Deletion” value turned out to be 0.42%, the “Avg % Edit” value is 29.47% and the “Avg % Insert” value amounted to 29.05%. Further, in series [2], the “Avg % Deletion” value is recorded as 55.13%, the “Avg % Edit” value is 58.62% and the “Avg % Insert” value came out at 5.01%.

On to “GGGAUUGGUGACGACAGCCG (tested as dual guide RNA, chemistry not given here) [CR003390]”, for which, in series [1], the “Avg % Deletion” value was determined as 0.39%, the “Avg % Edit” value worked out at 16.87% and the “Avg % Insert” value came to 16.49%. In series [2], the “Avg % Deletion” value was 16.49%, the “Avg % Edit” value is recorded as 18.97% and the “Avg % Insert” value is on record as 3.31%.

In the case of “AUAGGAGUAGGGGCUCAGCA (tested as dual guide RNA, chemistry not given here) [CR003383]”, in series [1], the “Avg % Deletion” value is listed as 4.55%, the “Avg % Edit” value was found to be 8.86% and the “Avg % Insert” value was 4.31%. For the same sequence, in series [2], the “Avg % Deletion” value was 41.19%, the “Avg % Edit” value is 42.89% and the “Avg % Insert” value is given as 2.14%.

Values taken from patent US11795460B2, “Compositions and methods for TTR gene editing and treating ATTR amyloidosis” (Intellia Therapeutics, Inc., priority 2017, dated 2023).
